The text below walks through data of patent US20250230147A1, “LACTAMS AS CBL-B INHIBITORS” (Genentech, Inc., priority 2021, published 2025).

Where a name gives a salt, the structure may show the parent alone.

For orientation: IC50 means the concentration at which inhibition is half-maximal. Read a low IC50 as greater potency in that assay.

The target in one test is Cbl-b (Homo sapiens (Human), UniProt Q13191). The test can be described thus: Cbl-b LCK Ub TR-FRET assay (Cbl-b Lck HTRF). The format is biochemical. The protocol: Compounds were 3-fold serially diluted in DMSO in a 384-well polypropylene plate (#P-05525-BC; Labcyte) to generate a source plate with 10 concentrations of each compound, top concentration=2 mM. 80 nL of DMSO or compounds were transferred to each well of a black 384-well ProxiPlate (#6008260; PerkinElmer) using a Labcyte Echo. 1×assay buffer (50 mM HEPES pH7.0, 100 mM NaCl, 0.01% BSA, 0.01% Triton-X100, 1 mM DTT), 2×enzyme solution (16 nM Biotin-Cbl-b or 12 nM Biotin-c-Cbl in 1× assay buffer), 2×kinase mixture (120 nM His-LCK, 1 mM ATP, 10 mM MgCl2 in assay buffer) and 2.33×detection mixture (4.66×solution 1: 163 nM Anti-HA-D2 antibody (#610HADAB; PerkinElmer), 27.96 nM Streptavidin-EU (#AD0062; PerkinElmer), 1.398 mM EDTA in 1×assay buffer+4.66×solution 2: 2.796 μM UBE2D2/Methylated-HA-Ubiquitin thioester adduct (BostonBiochem) in 1×assay buffer) were prepared. 4 μL of 2× enzyme solution was added to each well containing compound, briefly centrifuged to mix, and incubated for 60 min at room temperature. 4 μL of 2× kinase mixture was added, briefly centrifuged to mix, and incubated for 90 min. at room temperature. 6 μL of detection mixture was added to all wells and briefly centrifuged before incubating for 20 min at room temperature. Plates were read for TR-FRET using an Envision at excitation 340 nm, emission at 615 and 665 nm, 4 flashes per well. IC50 was generated using no LCK as the low control and DMSO as the high control.
Cbl-b Lck HTRF data in Table 7 is measured according to Example 76 herein; C-cbl Lck HTRF data is measured according to Example 76 herein.

Another test has as its target c-Cbl (Homo sapiens (Human), UniProt P22681). The test can be described thus: C-Cbl LCK Ub TR-FRET assay (c-cbl Lck HTRF). The format is biochemical. To be noted: for (fold-selectivity): C-cbl Lck HTRF IC50 relative to Cbl-b Lck HTRF IC50. The protocol: 6 μL of detection mixture was added to all wells and briefly centrifuged before incubating for 20 min at room temperature. […] IC50 was generated using no LCK as the low control and DMSO as the high control.
(In TR-FRET formats the signal depends on donor and acceptor labels being close together.)

Sequence of Cbl-b (Q13191 40-426): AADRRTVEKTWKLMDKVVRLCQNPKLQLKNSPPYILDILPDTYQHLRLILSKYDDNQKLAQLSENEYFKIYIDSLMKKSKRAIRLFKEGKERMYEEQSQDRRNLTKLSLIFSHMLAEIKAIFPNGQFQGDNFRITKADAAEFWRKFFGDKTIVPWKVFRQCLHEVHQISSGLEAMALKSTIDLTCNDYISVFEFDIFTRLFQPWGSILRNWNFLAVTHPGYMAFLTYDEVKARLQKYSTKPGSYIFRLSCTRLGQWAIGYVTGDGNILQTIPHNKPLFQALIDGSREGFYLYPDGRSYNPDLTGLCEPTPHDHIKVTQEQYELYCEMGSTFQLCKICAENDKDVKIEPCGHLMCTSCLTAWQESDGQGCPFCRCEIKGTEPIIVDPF
Sequence of c-Cbl (P22681 47-435): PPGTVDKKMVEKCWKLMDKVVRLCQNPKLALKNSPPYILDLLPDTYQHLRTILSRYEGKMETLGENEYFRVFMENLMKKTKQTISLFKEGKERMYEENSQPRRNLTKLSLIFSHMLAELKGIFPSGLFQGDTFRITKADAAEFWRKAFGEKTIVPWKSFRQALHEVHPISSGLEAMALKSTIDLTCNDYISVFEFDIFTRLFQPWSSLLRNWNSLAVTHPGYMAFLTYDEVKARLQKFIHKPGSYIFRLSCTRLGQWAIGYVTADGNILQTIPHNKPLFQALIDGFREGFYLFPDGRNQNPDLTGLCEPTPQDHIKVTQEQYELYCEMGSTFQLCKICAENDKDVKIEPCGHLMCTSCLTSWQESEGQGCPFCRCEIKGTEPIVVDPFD

Consider `Cn1cnnc1[C@H](F)C1(c2cccc(N3Cc4c(cc(CN5CC(C)(O)C5)cc4C(F)(F)F)C3=O)c2)CC(F)(F)C1` [Compound 51, (R)-2-(3-(3,3-difluoro-1-(fluoro(4-methyl-4H-1,2,4-triazol-3-yl)methyl)cyclobutyl)-phenyl)-6-((3-hydroxy-3-methylazetidin-1-yl)methyl)-4-(trifluoromethyl)isoindolin-1-one], for which 62 nM corresponded to half-maximal inhibition against Cbl-b (IC50). Further, on c-Cbl, it took 150 nM to reach half-maximal inhibition (IC50) and the “(fold-selectivity)” value turned out to be 2.4x.

As to `Cn1cnnc1[C@@H](F)C1(c2cccc(N3Cc4c(cc(CN5CC(C)(O)C5)cc4C(F)(F)F)C3=O)c2)CC(F)(F)C1` [Compound 52, (S)-2-(3-(3,3-difluoro-1-(fluoro(4-methyl-4H-1,2,4-triazol-3-yl)methyl)cyclobutyl)-phenyl)-6-((3-hydroxy-3-methylazetidin-1-yl)methyl)-4-(trifluoromethyl)isoindolin-1-one], at Cbl-b, inhibition was half-maximal at 62 nM (IC50). Further, at c-Cbl, the IC50 was determined as 130 nM and the “(fold-selectivity)” value was 2.1x.

The compound `Cn1cnnc1[C@H](F)C1(c2cccc(N3Cc4c(cc([C@@H](N)C5CC5)cc4C(F)(F)F)C3=O)c2)COC1` [Compound 53, 6-((S)-amino(cyclopropyl)methyl)-2-(3-(3-((R)-fluoro(4-methyl-4H-1,2,4-triazol-3-yl)methyl)oxetan-3-yl)phenyl)-4-(trifluoromethyl)isoindolin-1-one] gave an IC50 against Cbl-b of 34 nM. On c-Cbl, half-maximal inhibition (IC50) was put at 63 nM and the “(fold-selectivity)” value came out at 1.9x.

Compound `Cn1cnnc1[C@H](F)C1(c2cccc(N3Cc4c(cc([C@H](N)C5CC5)cc4C(F)(F)F)C3=O)c2)COC1` [Compound 54, 6-((R)-amino(cyclopropyl)methyl)-2-(3-(3-((R)-fluoro(4-methyl-4H-1,2,4-triazol-3-yl)methyl)oxetan-3-yl)phenyl)-4-(trifluoromethyl)isoindolin-1-one] gave an IC50 against Cbl-b of 29 nM. Further, on c-Cbl, the IC50 is 46 nM and the “(fold-selectivity)” value is 1.6x.

`CC(C)Nc1cc([C@H](C)Cc2nncn2C)cc(N2Cc3c(cc(CN4CCC5(CC5)C4)cc3C(F)(F)F)C2=O)n1.O=CO` [Compound 55, (R)-6-((5-azaspiro[2.4]heptan-5-yl)methyl)-2-(6-(isopropylamino)-4-(1-(4-methyl-4H-1,2,4-triazol-3-yl)propan-2-yl)pyridin-2-yl)-4-(trifluoromethyl)isoindolin-1-one formate]: half-maximal inhibition on Cbl-b (IC50) was put at 16 nM. In addition, on c-Cbl, 26 nM corresponded to half-maximal inhibition (IC50) and the “(fold-selectivity)” value is given as 1.6x.

On to `CCOc1cc([C@H](C)Cc2nncn2C)cc(N2Cc3c(cc(CN4CCC5(CC5)C4)cc3C(F)(F)F)C2=O)n1` [Compound 56, (R)-6-((5-azaspiro[2.4]heptan-5-yl)methyl)-2-(6-ethoxy-4-(1-(4-methyl-4H-1,2,4-triazol-3-yl)propan-2-yl)pyridin-2-yl)-4-(trifluoromethyl)isoindolin-1-one formate], for which the IC50 on Cbl-b turned out to be 16 nM; on c-Cbl, 22 nM.

`Cn1cnnc1[C@H](F)C1(c2cccc(N3Cc4c(cc(CC5CNC5)cc4C(F)(F)F)C3=O)c2)COC1` [Compound 57, (R)-6-(azetidin-3-ylmethyl)-2-(3-(3-(fluoro(4-methyl-4H-1,2,4-triazol-3-yl)methyl)oxetan-3-yl)phenyl)-4-(trifluoromethyl)isoindolin-1-one]: the IC50 against Cbl-b turned out to be 49 nM. Further, at c-Cbl, 67 nM corresponded to half-maximal inhibition (IC50) and the “(fold-selectivity)” value is recorded as 1.4x.

At Cbl-b, `Cn1cnnc1[C@@H](F)C1(c2cccc(N3Cc4c(cc(CC5CNC5)cc4C(F)(F)F)C3=O)c2)COC1` [Compound 58, (S)-6-(azetidin-3-ylmethyl)-2-(3-(3-(fluoro(4-methyl-4H-1,2,4-triazol-3-yl)methyl)oxetan-3-yl)phenyl)-4-(trifluoromethyl)isoindolin-1-one] registered an IC50 of 200 nM. Also, on c-Cbl, the half-inhibitory concentration (IC50) stood at 360 nM and the “(fold-selectivity)” value amounted to 1.8x.

As to `Cn1cnnc1[C@H](F)C1(c2cccc(N3Cc4c(cccc4C(F)F)C3=O)c2)COC1` [Compound 59, (R)-4-(difluoromethyl)-2-(3-(3-(fluoro(4-methyl-4H-1,2,4-triazol-3-yl)methyl)oxetan-3-yl)phenyl)isoindolin-1-one], the IC50 against Cbl-b worked out at 590 nM. Further, on c-Cbl, half-maximal inhibition (IC50) was put at 1300 nM and the “(fold-selectivity)” value stood at 2.1x.

As to `Cn1cnnc1CC1(c2cccc(N3Cc4c(cc(CN)cc4C(F)(F)F)C3=O)c2)COC1` [Compound 66, 6-(aminomethyl)-2-(3-(3-((4-methyl-4H-1,2,4-triazol-3-yl)methyl)oxetan-3-yl)phenyl)-4-(trifluoromethyl)isoindolin-1-one formate], the values for the IC50 against Cbl-b and at c-Cbl were 76 nM and 100 nM, respectively.

In the case of `Cn1cnnc1[C@@H](F)C1(c2cccc(N3Cc4c(cc(CN)cc4C(F)(F)F)C3=O)c2)COC1` [Compound 69, (S)-6-(aminomethyl)-2-(3-(3-(fluoro(4-methyl-4H-1,2,4-triazol-3-yl)methyl)oxetan-3-yl)phenyl)-4-(trifluoromethyl)isoindolin-1-one], the IC50 is 210 nM at Cbl-b and 340 nM against c-Cbl. Moreover, the “(fold-selectivity)” value on c-Cbl stood at 1.6x.

For the compound `Cn1cnnc1[C@@H](F)C1(c2cccc(N3Cc4c(cc(CN5CCC5)cc4C(F)(F)F)C3=O)c2)COC1` [Compound 71, (S)-6-(azetidin-1-ylmethyl)-2-(3-(3-(fluoro(4-methyl-4H-1,2,4-triazol-3-yl)methyl)oxetan-3-yl)phenyl)-4-(trifluoromethyl)isoindolin-1-one], at Cbl-b, it took 240 nM to reach half-maximal inhibition (IC50). Also, on c-Cbl, the IC50 worked out at 400 nM and the “(fold-selectivity)” value turned out to be 1.7x.

On to `Cn1cnnc1[C@H](F)C1(c2cccc(N3Cc4c(cc(CN5CC(C)(C)C5)cc4C(F)(F)F)C3=O)c2)COC1` [Compound 72, (R)-6-((3,3-dimethylazetidin-1-yl)methyl)-2-(3-(3-(fluoro(4-methyl-4H-1,2,4-triazol-3-yl)methyl)oxetan-3-yl)phenyl)-4-(trifluoromethyl)isoindolin-1-one], for which the results for the IC50 against Cbl-b and against c-Cbl were 55 nM and 110 nM, respectively. Moreover, on c-Cbl, the “(fold-selectivity)” value is 2.1x.

As for `Cn1cnnc1[C@@H](F)C1(c2cccc(N3Cc4c(cc(CN5CC(C)(C)C5)cc4C(F)(F)F)C3=O)c2)COC1` [Compound 73, (S)-6-((3,3-dimethylazetidin-1-yl)methyl)-2-(3-(3-(fluoro(4-methyl-4H-1,2,4-triazol-3-yl)methyl)oxetan-3-yl)phenyl)-4-(trifluoromethyl)isoindolin-1-one], the IC50 at Cbl-b amounted to 140 nM. Besides, at c-Cbl, the midpoint of inhibition, the IC50, lay at 300 nM and the “(fold-selectivity)” value is on record as 2.2x.

The compound `Cn1cnnc1[C@@H](F)C1(c2cccc(N3Cc4c(cc(CN5CC(C)(CO)C5)cc4C(F)(F)F)C3=O)c2)COC1` [Compound 75, (S)-2-(3-(3-(fluoro(4-methyl-4H-1,2,4-triazol-3-yl)methyl)oxetan-3-yl)phenyl)-6((3-(hydroxymethyl)-3-methylazetidin-1-yl)methyl)-4-(trifluoromethyl)isoindolin-1-one] gave an IC50 at Cbl-b of 250 nM. For the same compound, at c-Cbl, the IC50 amounted to 580 nM and the “(fold-selectivity)” value came to 2.3x.

At Cbl-b, `Cn1cnnc1[C@H](F)C1(c2cccc(N3Cc4c(cc(CN5CC(C)(CF)C5)cc4C(F)(F)F)C3=O)c2)COC1` [Compound 76, (R)-2-(3-(3-(fluoro(4-methyl-4H-1,2,4-triazol-3-yl)methyl)oxetan-3-yl)phenyl)-6-((3-(fluoromethyl)-3-methylazetidin-1-yl)methyl)-4-(trifluoromethyl)isoindolin-1-one] displayed an IC50 of 52 nM. On c-Cbl, the IC50 was 82 nM and the “(fold-selectivity)” value worked out at 1.6x.

On to `Cn1cnnc1[C@@H](F)C1(c2cccc(N3Cc4c(cc(CN5CC(C)(CF)C5)cc4C(F)(F)F)C3=O)c2)COC1` [Compound 77, (S)-2-(3-(3-(fluoro(4-methyl-4H-1,2,4-triazol-3-yl)methyl)oxetan-3-yl)phenyl)-6-((3-(fluoromethyl)-3-methylazetidin-1-yl)methyl)-4-(trifluoromethyl)isoindolin-1-one], for which the IC50 on Cbl-b was 210 nM. Further, at c-Cbl, the IC50 came out at 370 nM and the “(fold-selectivity)” value is 1.8x.

Regarding `Cn1cnnc1[C@H](F)C1(c2cccc(N3Cc4c(cc(CN5CC6(CC6)C5)cc4C(F)(F)F)C3=O)c2)COC1` [Compound 78, (R)-6-((5-azaspiro[2.3]hexan-5-yl)methyl)-2-(3-(3-(fluoro(4-methyl-4H-1,2,4-triazol-3-yl)methyl)oxetan-3-yl)phenyl)-4-(trifluoromethyl)isoindolin-1-one], the results for the IC50 against Cbl-b and against c-Cbl were 53 nM and 79 nM, respectively. Also, the “(fold-selectivity)” value at c-Cbl came out at 1.5x.
